Measurements reported in patent publication US7479385B2, “Sugar kinases with expanded substrate specificity and their use” (Wisconsin Alumni Research Foundation, priority 2003, dated 2009).
Like-named read-outs stand apart in the source and are kept apart here.

Assays:
wild-type E. coli GalK [1] = target: T1, wild-type E. coli GalK (Escherichia coli, UniProt P0A6T3); assay: Kinetics and substrate specificity of wild-type GalK with sugar substrates (DNS assay), Table 1; format: biochemical
T1 construct: made in house
T1 sequence (P0A6T3 1-382): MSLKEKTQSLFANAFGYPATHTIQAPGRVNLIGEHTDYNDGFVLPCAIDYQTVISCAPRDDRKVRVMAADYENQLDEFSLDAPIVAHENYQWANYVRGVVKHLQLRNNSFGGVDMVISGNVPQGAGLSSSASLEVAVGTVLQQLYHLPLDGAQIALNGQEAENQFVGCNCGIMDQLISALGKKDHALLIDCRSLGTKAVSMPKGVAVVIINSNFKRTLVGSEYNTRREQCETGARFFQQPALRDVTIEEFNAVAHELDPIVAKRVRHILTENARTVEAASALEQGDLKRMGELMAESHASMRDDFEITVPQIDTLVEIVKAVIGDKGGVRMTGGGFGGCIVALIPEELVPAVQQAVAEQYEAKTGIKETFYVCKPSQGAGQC

GalK variant Y371H = target: T2, GalK variant Y371H (Escherichia coli, UniProt P0A6T3, Y371H); assay: Preparative phosphorylation of L-altrose by GalK Y371H, conversion by DNS assay; format: biochemical, E. coli; details: within four hours, 37° C., Y371H 150 μg mL^−1
T2 construct: His-tag (concluded from Ni-NTA purification and vector pET15b); made in house; host or cells: E. coli BL21-Gold (DE3), vector pET15b
T2 sequence (P0A6T3 whole entry Y371H): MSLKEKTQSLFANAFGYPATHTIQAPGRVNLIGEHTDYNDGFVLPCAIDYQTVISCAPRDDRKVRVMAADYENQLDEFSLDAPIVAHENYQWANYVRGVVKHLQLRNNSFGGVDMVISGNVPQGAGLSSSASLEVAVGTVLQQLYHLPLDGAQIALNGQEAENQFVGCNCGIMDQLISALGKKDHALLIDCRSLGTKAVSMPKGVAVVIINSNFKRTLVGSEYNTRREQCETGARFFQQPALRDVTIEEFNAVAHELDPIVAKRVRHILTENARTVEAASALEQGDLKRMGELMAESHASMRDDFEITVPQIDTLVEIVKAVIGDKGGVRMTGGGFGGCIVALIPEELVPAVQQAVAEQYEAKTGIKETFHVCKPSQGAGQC
Method: Preparative phosphorylation of L-altrose and product characterization. […] To this solution, ATP (125 mg, 0.23 mmol), MgCl2.6H2O (15.3 mg, 0.07 mmol) were added, the mixture incubated at 37° C. for 5 min, the reaction initiated via the addition of enzyme (Y371H) to a final concentration of 150 μg mL^−1 and reaction progress monitored by TLC. After completion, the mixture was diluted 5-fold in ddH2O and applied to a 200 mL anion exchange column (Q-Sepharose fast flow, Amersham, Piscataway, N.J.). The column was eluted with a gradient of 0-400 mM NaCl and the active fraction was collected and evaporated under reduced pressure. The crude product was desalted on a P-2 gel filtration column (The Nest Group, Southboro, Mass.) to give 16.1 mg of purified product (yield: 52%). [α]D=3.5° (c=1, H2O) ^1H NMR (D2O): 5.48 (dd, J=8.6, 1.8 Hz, 1H), 4.14 (dd, 5.3, 3.3 Hz, 1H), 3.99 (m, 1H), 3.98 (dd, J=4.3, 1.8 Hz, 1H), 3.91 (d, J=3.3, 1H), 3.89 (m, 1H), 3.84 (dd, J=12.1, 7.8 Hz, 1H); ^13C NMR (D2O): 94.10, 76.23, 70.70, 69.99, 65.68, 62.21; ^31P NMR (D2O): 3.77; MS: calculated for C6H13O9P 260.0, found m/z 259.0 [M−H]^−.
Confirmation of L-sugar conversion. […] To confirm the evolved enzyme retains regio- and stereoselectivity with L-sugar substrates, a representative L-sugar reaction product was further characterized. […]

GalK mutant Y371H = GalK mutant Y371H (Escherichia coli, UniProt P0A6T3, Y371H); details: DNS assay and thin layer chromatography
GalK mutant Y371H, sequence (P0A6T3 whole entry Y371H): as above

[2] = target: T3, E. coli GalK mutant M173L (Escherichia coli, UniProt P0A6T3, M173L); assay: Steady-state kinetic profiling (DNS assay), Table 2, M173L; format: biochemical; details: sugar 1-8 mM, saturating ATP (14 mM)
T3 construct: His-tag (concluded from Ni-NTA purification and vector pET15b); made in house
T3 sequence (P0A6T3 whole entry M173L): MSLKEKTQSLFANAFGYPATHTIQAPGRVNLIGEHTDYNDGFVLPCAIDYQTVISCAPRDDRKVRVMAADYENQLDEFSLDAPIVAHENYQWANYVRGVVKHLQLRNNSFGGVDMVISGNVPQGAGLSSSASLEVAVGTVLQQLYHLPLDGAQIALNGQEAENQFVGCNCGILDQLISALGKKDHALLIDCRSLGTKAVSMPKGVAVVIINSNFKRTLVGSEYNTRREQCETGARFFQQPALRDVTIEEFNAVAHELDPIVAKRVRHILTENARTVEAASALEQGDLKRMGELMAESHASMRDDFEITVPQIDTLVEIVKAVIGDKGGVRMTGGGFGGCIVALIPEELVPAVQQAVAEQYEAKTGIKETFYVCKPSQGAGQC
Description: (§1) Characterization of GalK Mutants. […] The mutant enzymes were purified by using metal affinity chromatography on Ni-NTA Spin Columns (QIAGEN, Valencia, Calif.) and fractions containing homogenous protein were collected, concentrated and quantified using the Bradford protein assay. The DNS assay was used to assess the substrate specificity of the purified GalK mutants as previously described. […] For each sugar, the DNS assay was used to monitor the reaction progress and control assays in the absence of enzyme or sugar were performed in parallel. Standard curves for each sugar were prepared as described. To assess general percent conversion, each reaction contained 15.0 (M enzyme, 8 mM sugar, 14 mM ATP and 3.5 mM MgCl2. The reactions were incubated at 37° C. for 3 hrs after which the reactions were quenched with MeOH, centrifuged (10 min, 12,000 rpm) and then the supernatant (diluted 20-fold) submitted for LC-MS and MS/MS analysis. For monosaccharide kinetic data determination, the sugar concentration was varied over a range of 1-8 mM, under saturating ATP (14 mM). Reaction progress was assessed via the DNS assay, wherein a change in absorbance at 575 nm as a function of time was obtained and the initial velocity determined by the slope of the linear phase in the progress curve. […]

[3] = target: T4, E. coli GalK double mutant M173L-Y371H (Escherichia coli, UniProt P0A6T3, M173L/Y371H); assay: Steady-state kinetic profiling (DNS assay), Table 2, M173L-Y371H; format: biochemical; details: sugar 1-8 mM, saturating ATP (14 mM)
T4 construct: His-tag (concluded from Ni-NTA purification and vector pET15b); made in house
T4 sequence (P0A6T3 whole entry M173L/Y371H): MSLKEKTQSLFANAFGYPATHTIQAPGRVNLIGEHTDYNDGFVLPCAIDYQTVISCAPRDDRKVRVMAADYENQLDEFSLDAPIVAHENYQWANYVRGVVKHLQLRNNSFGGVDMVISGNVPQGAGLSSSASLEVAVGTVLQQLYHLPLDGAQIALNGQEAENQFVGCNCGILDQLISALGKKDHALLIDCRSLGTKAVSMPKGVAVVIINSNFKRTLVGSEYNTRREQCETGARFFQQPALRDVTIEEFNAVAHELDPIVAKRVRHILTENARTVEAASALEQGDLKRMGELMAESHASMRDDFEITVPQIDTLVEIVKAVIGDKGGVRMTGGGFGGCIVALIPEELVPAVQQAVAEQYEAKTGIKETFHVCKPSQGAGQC
Description: as §1

[4] = target: T5, E. coli GalK M173L mutant (Escherichia coli, UniProt P0A6T3, M173L); assay: Substrate screen / percent conversion of 45 sugars, M173L; format: biochemical
T5 construct: His-tag (concluded from Ni-NTA purification and vector pET15b); made in house
T5 sequence (P0A6T3 whole entry M173L): as the sequence (P0A6T3 whole entry M173L) above
Description: (§2) Characterization of GalK Mutants. […] The mutant enzymes were purified by using metal affinity chromatography on Ni-NTA Spin Columns (QIAGEN, Valencia, Calif.) and fractions containing homogenous protein were collected, concentrated and quantified using the Bradford protein assay. The DNS assay was used to assess the substrate specificity of the purified GalK mutants as previously described. […] For each sugar, the DNS assay was used to monitor the reaction progress and control assays in the absence of enzyme or sugar were performed in parallel. Standard curves for each sugar were prepared as described. To assess general percent conversion, each reaction contained 15.0 (M enzyme, 8 mM sugar, 14 mM ATP and 3.5 mM MgCl2. The reactions were incubated at 37° C. for 3 hrs after which the reactions were quenched with MeOH, centrifuged (10 min, 12,000 rpm) and then the supernatant (diluted 20-fold) submitted for LC-MS and MS/MS analysis. For monosaccharide kinetic data determination, the sugar concentration was varied over a range of 1-8 mM, under saturating ATP (14 mM). Reaction progress was assessed via the DNS assay, wherein a change in absorbance at 575 nm as a function of time was obtained and the initial velocity determined by the slope of the linear phase in the progress curve. The kinetic data was analyzed using Enzyme Kinetics Module software (SSPS, Inc., Chicago, Ill.) as previously described.
(§3) Characterization of Engineered E. coli GalK Mutants.

L. lactis wild-type GalK = target: T6, L. lactis wild-type GalK (Lactococcus lactis subsp. lactis, UniProt Q9R7D7); details: in vitro, cited from earlier work
T6 sequence (Q9R7D7 1-399): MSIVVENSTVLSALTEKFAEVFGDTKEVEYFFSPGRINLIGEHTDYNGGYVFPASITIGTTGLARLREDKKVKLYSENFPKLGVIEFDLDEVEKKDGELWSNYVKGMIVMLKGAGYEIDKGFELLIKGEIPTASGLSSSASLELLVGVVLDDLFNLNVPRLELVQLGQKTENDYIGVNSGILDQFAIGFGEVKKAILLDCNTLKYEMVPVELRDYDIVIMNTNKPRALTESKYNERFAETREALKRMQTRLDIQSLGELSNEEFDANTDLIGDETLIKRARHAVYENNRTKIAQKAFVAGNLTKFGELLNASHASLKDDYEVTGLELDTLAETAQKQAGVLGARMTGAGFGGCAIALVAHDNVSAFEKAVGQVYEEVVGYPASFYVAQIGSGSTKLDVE

L. lactis GalK Y385H = L. lactis GalK Y385H (Lactococcus lactis subsp. lactis, UniProt Q9R7D7, Y385H); details: cited from earlier work
L. lactis GalK Y385H, sequence (Q9R7D7 whole entry Y385H): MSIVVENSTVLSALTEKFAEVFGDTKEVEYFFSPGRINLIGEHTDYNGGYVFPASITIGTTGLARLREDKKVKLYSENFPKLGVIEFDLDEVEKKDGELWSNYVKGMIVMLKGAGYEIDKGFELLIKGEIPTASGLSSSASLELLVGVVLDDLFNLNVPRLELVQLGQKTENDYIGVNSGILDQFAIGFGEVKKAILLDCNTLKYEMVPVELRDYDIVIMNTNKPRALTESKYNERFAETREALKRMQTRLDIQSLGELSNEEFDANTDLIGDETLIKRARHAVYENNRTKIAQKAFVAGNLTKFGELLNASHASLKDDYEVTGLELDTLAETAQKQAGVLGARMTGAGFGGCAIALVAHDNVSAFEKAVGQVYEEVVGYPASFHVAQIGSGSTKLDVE

[5] = target: T7, E. coli GalK Y371H mutant (Escherichia coli, UniProt P0A6T3, Y371H); format: biochemical
T7 construct: His-tag (concluded from Ni-NTA purification and vector pET15b); made in house; host or cells: E. coli BL21-Gold (DE3), vector pET15b
T7 sequence (P0A6T3 whole entry Y371H): as the sequence (P0A6T3 whole entry Y371H) above
Description: as §2, §3

wild-type E. coli GalK [6] = target: T1, wild-type E. coli GalK; format: biochemical
Description: as §2, §3

[7] = target: T8, E. coli double M173L-Y371H mutant GalK (Escherichia coli, UniProt P0A6T3, M173L/Y371H); assay: Substrate screen / percent conversion of 45 sugars, M173L-Y371H; format: biochemical
T8 construct: His-tag (concluded from Ni-NTA purification and vector pET15b); made in house
T8 sequence (P0A6T3 whole entry M173L/Y371H): as the sequence (P0A6T3 whole entry M173L/Y371H) above
Description: as §2, with “The reactions were incubated at 37° C. for 3 hrs after which the reactions were quenched with MeOH, centrifuged (10 min, 12,000 rpm) and then the supernatant (diluted 20-fold) submitted for LC-MS and MS/MS analysis.” left out
as §3

Y371H-M173L GalK = target: T9, Y371H-M173L GalK (Escherichia coli, UniProt P0A6T3, M173L/Y371H); assay: In vivo conversion of fed unnatural sugars to sugar-1-phosphates in E. coli host overexpressing GalK double mutant; format: cell-based; details: sugar fed at 4 mM to E. coli overexpressing Y371H-M173L GalK, 16° C., 16 hr; fluorescence HPLC after labelling with 50
T9 construct: His-tag (concluded: same plasmid pGalKMLYH in pET-15b whose product was purified on Ni-NTA); expressed in transfected cells; host or cells: E. coli host carrying pGalKMLYH (pET-15b), IPTG-induced at 16 °C
T9 sequence (P0A6T3 whole entry M173L/Y371H): as above
Description: FIG. 9. In vivo GalK-catalyzed sugar-1-phosphate production. (a) Experimental overview using 6-azido-6-deoxy-D-galactose (22) as an example: 22 is fed to an E. coli host expressing the M173L-Y371H GalK double mutant and the reactants and products subsequently labeled using a […] with the fluorescent tag 50. (b) HPLC chromatographs of bioconversions: i)22 with Y371H-M173L GalK; ii)46 with Y371H-M173L GalK; iii) 22 with wild-type GalK. MS: 50, calculated for C20H25N3O3S 387.2, found m/z 386.1 [M−H]^−; 51, calculated for C26H37N6O11PS 672.2, found m/z 671.2 [M−H]^−; 52, calculated for C26H36N6O8S 592.2, found m/z 591.2 [M−H]
In Vivo Conversion Analysis. […] The reaction mixture was subsequently centrifuged to remove CuI and the supernatant (diluted 2-fold) directly analyzed by HPLC and LC-MS calculated for C26H37N6O11PS 672.20, found m/z […] 671.20.
To assess the Y371H-M173L GalK-catalyzed in vivo production of unnatural sugar-1-phosphates (FIG. 9a), the unnatural sugars (22 or 46, 4 mM final concentration) were fed to an E. coli host (40 mL culture) which overexpressed the promiscuous GalK. After a designated time, the extracts were analyzed via the specific attachment of a fluorescent tag (50), to both starting material (22 or 46) and desired sugar-1-phosphate products, using 1,3-dipolar cycloaddition. […]

O=C[C@H](O)[C@@H](O)[C@@H](O)[C@@H](O)CO [L-Alt (16), L-altrose]
substrate of wild-type GalK (in words) (wild-type E. coli GalK [1]): failed as wild-type GalK substrates | conversion of L-altrose (GalK variant Y371H): 91% | kinase activity / turnover by GalK Y371H (in words) (GalK mutant Y371H): substantial degree of kinase activity

O=C[C@H](O)[C@@H](O)[C@H](O)[C@H](O)CO [D-Glc (27), D-glucose]
Km ([2]; read-out: Km, M173L (D-Glc column)): 2.6 mM | Vmax, M173L [2]: 0.02 (±0.01) mM min^−1 | Km ([3]; read-out: Km, M173L-Y371H (D-Glc column)): 4 mM | Vmax, M173L-Y371H [3]: 0.02 (±0.01) mM min^−1 | conversion by M173L ([4]; in 3 hr, 37° C., 8 mM sugar, 14 mM ATP, 3.5 mM MgCl2, 15.0 μM enzyme): 20% | conversion / activity with L. lactis wild-type GalK (in words) (L. lactis wild-type GalK): weak activity | conversion / activity with L. lactis wild-type GalK (in words) (L. lactis wild-type GalK; listed as D-glucose (27)): in vitro conversion | activity with L. lactis GalK Y385H (in words) (L. lactis GalK Y385H): weak activity

[N-]=[N+]=NC[C@@H](O)[C@H](O)[C@H](O)[C@@H](O)C=O [6-azido-6-deoxy-D-galactose (22), 6-azido-6-deoxy-D-galactose]
substrate of M173L (in words) [4]: failed | substrate of Y371H (in words) [5]: failed | substrate of wild-type E. coli GalK (in words) (wild-type E. coli GalK [6]): not a substrates | kinase activity of M173L-Y371H double mutant (in words) [7]: accept | in vitro yield (conversion) quoted for comparison with in vivo ([7]; in vitro): ~50% | in vitro conversion by M173L-Y371H ([7]; in vitro, in 2 hrs): > 50% | in vivo conversion to sugar-1-phosphate (Y371H-M173L GalK): ~69%
